Test results as given in patent US20240294570A1, “ENZYMATICALLY FORMING INTRANUCLEAR PEPTIDE ASSEMBLIES FOR SELECTIVELY KILLING INDUCED PLURIPOTENT STEM CELLS” (BRANDEIS UNIVERSITY, priority 2021, published 2024).
Non-standard residues stand in square brackets, D forms with d. Residues, ends and D or L forms follow the SMILES beside them. *: point of attachment. pY = N[C@@H](Cc1ccc(OP(=O)(O)O)cc1)C(=O)O; NBD = O=[N+]([O-])c1ccc(*)c2nonc12; βAla = NCCC(=O)O

Legend:
[1] = Critical micelle concentration (CMC) measurement with pyrene probe; format: physicochemical
Description: Critical Micelle Concentration ((MC) Measurement: The CMCs were determined using pyrene as the fluorescent probe. Different concentrations of compounds were prepared in pyrene-saturate solutions. The fluorescence spectra of pyrene solutions with different concentration compounds were obtained. The intensity ratio of 378 nm/393 nm (I378/I393) was determined by a Synergy H1 hybrid multi-mode microplate reader. Plot I378/I393 against the concentrations of compounds. The concentration at the turning point is the CMC.

[2] = Cell viability of iPS-derived HPCs (trypan blue); format: cell-based, human; details: human, iPS-derived hematopoietic progenitor cells (HPCs), read-out: viability of the HPC cells
Description: (§1) Differentiation of Human iPSC to iPS-derived Hematopoietic Progenitor Cells (HPC's): iPSCs were differentiated into hematopoietic progenitor cells (HPCs) by using a 3D-bioreactor platform^1. HPCs released from iPSC-spheroids after 9-10 days' differentiation were collected and characterized. Hematopoietic lineage specific marker expression of harvested HPCs were analyzed by flow cytometry. About 97.6% of these HPCs were CD31+CD43+ double positive, but only about 13% are OCT4+, indicative of commitment to hematopoietic lineage. These iPS-derived HPCs were used for 5 (400 μM, 2 hr) cytotoxicity assay.
(§2) Cell Viability of iPS-derived HPC's: iPS-derived HPCs were plated in 12-well plates and incubated overnight, then media were replaced with fresh one (2 ml) supplemented with PBS (control) 5 (400 μM) incubated for 2 hours. All cells were collected and stained with trypan blue, live cells were counted using Cellometer Auto 2000 (Nexcelom Bioscience). Data were obtained by from three independent wells (n=3).

[3] = test system: iPS-derived HPCs; assay: Cell viability of iPS-derived HPCs (trypan blue); format: cell-based, human; details: 400 μM, 2 h
Description: as §1, §2

[4] = test system: HEK293 cells; assay: Cytotoxicity against HEK293 cells (MTT assay); format: cell-based; details: 400 μM, 2 h
Description: Cell Culture: Human induced pluripotent stem cell line A21 was generated from human normal dermal fibroblasts by using the StemRNA™-NM Reprogramming kit (Stemgent, Cat #00-0076). hiPSCs were routinely cultured and passaged on 6-well plates coated with 0.25 μg/cm^2 iMatrix-511 (Recombinant Laminin-511) (ReproCell) with NutriStem XF/FFTM medium (Biological Industries). HS-5 cell line and HEK293 cell line were purchased from American Type Culture Collection (ATCC, USA). HS-5 cells were cultured in Dulbecco's Modified Eagle Medium (DMEM) supplemented with 10% fetal bovine serum (FBS), 100 U/mL penicillin and 100 μg/mL streptomycin. HEK293 cells were cultured in Minimal Essential Medium (MEM) supplemented with 10% fetal bovine serum (FBS), 100 U/mL penicillin and 100 μg/mL streptomycin. All cells were maintained at 37° C. in a humidified atmosphere of 5% CO2.
Cell Viability of Differentiated Cells: Cytotoxicity against HS-5 cells and HEK293 cells was determined by using MTT assay. […] The absorbance of each well at 595 nm was measured by a DTX880 Multimode Detector. The results were calculated as cell viability percentage relative to untreated cells. […]

[5] = test system: iPSCs; assay: CLSM imaging of peptide assemblies in iPSCs; format: cell-based, human
Description: Confocal Laser Scanning Microscopy (CLSM) Imaging: For live cell imaging, cells in exponential growth phase were seeded in a confocal dish (3.5 cm) at 1.0×10^5 cells per dish and then incubated in incubator for 24 h. We removed culture medium, and added fresh medium containing precursors for different time points. After removing the medium and washing the cells with live cell imaging solution (2 mL×2), the cells were used for CLSM imaging. For time-dependent live cell imaging, cells in exponential growth phase were seeded in a confocal dish (3.5 cm) at 1.0×10^5 cells per dish and then incubated in incubator for 24 h. After removing culture medium, we treated the cells with 1 mL of Hoechst 33342 (1 μg mL^−1) for 10 minutes. After being washed with culture medium (2 mL×2), the cells were incubated with fresh medium containing precursor 5 in a Tokai Hit stage top incubator (STXF-WSKMX-SET) to be used for CLSM imaging. All the CLSM images were obtained using Zeiss LSM 880 confocal microscopy at the lens of 63× with oil. The lasers used are 405 nm and 488 nm.
Because the fluorescence of NBD increases drastically from unassembled to assembled state, confocal laser scanning microscopy (CLSM) was suitable to reveal the cellular location of the peptide assemblies formed after dephosphorylation catalyzed by ALP. […] The blackness in nuclei overlaps well with the strong fluorescence. […] The results confirms that the nucleus-targeting mainly originates from the ALP catalyzed dephosphorylation.
To trace the dynamics of the formation and distribution of 5 inside iPSC cells, time-lapse CLSM was also used to image the changes of the fluorescence in the iPSCs incubated by 5 (400 μM). Using one cell as a representative case, after 6 minutes incubation fluorescent puncta appear on the membrane, likely originating from the aggregates of assemblies of 5 and those of 6 generated by the dephosphorylation catalyzed by ALP. […] After 24 minutes incubation, fluorescence starts to grow in the cytoplasm. Considering the LLLLY motif in SEQ ID NO: 2 constitutes the transmembrane domains of 18 human membrane proteins, it is possible that the affinity of 5 or 6 to membrane allows the assemblies of the mixture of 5 and 6 to interact with cellular membranes, which then facilitates nuclear localization. At about 28 minutes of incubation, fluorescence appears in the nucleus. Moreover, the nuclei shrink after the assemblies emerge in the nuclei. In addition, the nuclei also show nuclear blebbing (Stephens et al., “Chromatin Histone Modifications and Rigidity Affect Nuclear Morphology Independent of Lamins,” Mol. Biol. Cell 29(2):220-233 (2018), which is hereby incorporated by reference in its entirety). The shrinkage of nuclei and nuclear blebbing likely associate with iPSC death. To further examine the dynamics of EISA-formed peptide assemblies in iPSCs over different time, the increase of fluorescence in two cells over 2 hours was monitored; their nuclei, A and B, are shown in FIG. 10A. […] The mean fluorescent intensity in Nucleus A starts to increase at 28 minutes and levels off after 110 minutes. For Nucleus B, the mean fluorescent intensity keeps increasing from 38 minutes. The increases of the fluorescence in the nuclei and nucleoli are synchronous. […] The assemblies inside the nuclei or near nuclear membrane induce nuclear blebbing and shrinkage of nuclei, which likely contributes to the cell death.

[6] = Degradation in HS-5 cell lysate (LC-MS); details: 200 μM, 2 h of incubation
[7] = 400 μM, time-lapse CLSM, one representative cell

Q: For `CC(C)C[C@H](NC(=O)CCNc1ccc([N+](=O)[O-])c2nonc12)C(=O)N[C@@H](CC(C)C)C(=O)N[C@@H](CC(C)C)C(=O)N[C@@H](CC(C)C)C(=O)N[C@@H](Cc1ccc(OP(=O)(O)O)cc1)C(=O)O` [compound 5, NBD-βA-LLLLpY] ({NBD-βAla}-LLLL[pY]-OH), which “critical micelle concentration (CMC)” value [1] is on record?
A: The value was 86.1 µM.

Q: What about the viability at 2 h, 400 µM [2] of the same compound?
A: Its viability at 2 h, 400 µM is 96.8%.

Q: What about the “cell survival of HPCs (FIG. 8B)” value [3] of the same compound?
A: Its value is 97%.

Q: And the “cytotoxicity towards HEK293 cells” value [4]?
A: The value was “innocuous”.

Q: And the “NBD fluorescence in iPSCs” value ([5]; 200 μM)?
A: The value was “hardly any fluorescence in the cells”.

Q: What about the “NBD fluorescence in iPSCs with ALP inhibitor” value ([5]; 400 μM plus DQB 5 μM, 2 hours) of the same compound?
A: Its value is “little fluorescence in cells”.

Q: And the “NBD fluorescence in iPSCs (location of peptide assemblies)” value ([5]; 400 μM, 2 hours)?
A: Its value is “strong NBD fluorescence in nuclei”.

Q: And the “incubation time at which fluorescence appears in the nucleus” value [5, 7]?
A: The value was “about 28 minutes”.

Q: And the “incubation time at which fluorescence starts to grow in the cytoplasm” value [5, 7]?
A: Its value is 24 min.

Q: And the “incubation time at which fluorescent puncta appear on the membrane” value [5, 7]?
A: Its value is 6 min.

Q: And the “NBD fluorescence in iPSC nuclei” value ([5]; 400 μM, treatment time 1 hour)?
A: The value was “weaker fluorescence”.

Q: What about the “stability of 5 in HS-5 lysate” value [6] of the same compound?
A: Its value is “All of 5 disappears”.
